According to US11292791B2 (priority 2017, dated 2022):

Target: BRD4 (Homo sapiens (Human), UniProt O60885)
Conditions: read-out: BRD4 IC50 (μM gmean)

Compound | IC50 [µM]
COC(=O)N1c2ccc3c(nc(Cc4ccccc4)n3CC3CCS(=O)(=O)CC3)c2CC[C@@H]1C [Example 253] | 1 to 1000
COC(=O)N1c2ccc3c(nc(Cc4ccccc4)n3C3CCS(=O)(=O)CC3)c2CC[C@@H]1C [Example 254] | 1 to 1000
COC(=O)N1c2ccc3c(nc(Cc4ccccc4)n3[C@H]3CC[C@H](C#N)CC3)c2CC[C@@H]1C [Example 255] | 1 to 1000
COC(=O)N1c2ccc3c(nc(Cc4ccccc4)n3[C@H]3CC[C@@H](C#N)CC3)c2CC[C@@H]1C [Example 256] | 1 to 1000
COC(=O)N1c2ccc3c(nc(Cc4ccccc4)n3C3CCN(C)CC3)c2CC[C@@H]1C [Example 257] | 1 to 1000
COC(=O)N1c2ccc3c(nc(Cn4ccccc4=O)n3C3CCOCC3)c2CC[C@@H]1C [Example 259] | 1 to 1000
COC(=O)N1c2ccc3c(nc(Cn4ccccc4=O)n3[C@H]3CCCOC3)c2CC[C@@H]1C [Example 260] | 1 to 1000
COC(=O)N1c2ccc3c(nc(CCn4ccccc4=O)n3CCCS(C)(=O)=O)c2CC[C@@H]1C [Example 261] | 1 to 1000
COC(=O)N1c2ccc3c(nc(CCn4cccn4)n3C3CCS(=O)(=O)CC3)c2CC[C@@H]1C [Example 262] | 1 to 1000
COC(=O)N1c2ccc3c(nc(Cc4ccccc4)n3C3CCCCC3)c2CC[C@@H]1C [Example 263] | 1 to 1000
COC(=O)N1c2ccc3c(nc(Cc4ccccc4)n3[C@H]3CCCS(=O)(=O)C3)c2CC[C@@H]1C [Example 264, methyl (S)-2-benzyl-3-((S)-1,1-dioxidotetrahydro-2H-thiopyran-3-yl)-7-methyl-3,7,8,9-tetrahydro-6H-imidazo[4,5-f]quinoline-6-carboxylate] | 1 to 1000
COC(=O)N1c2ccc3c(nc(Cc4ccccc4)n3[C@@H]3CCCS(=O)(=O)C3)c2CC[C@@H]1C [Example 265, methyl (S)-2-benzyl-3-((R)-1,1-dioxidotetrahydro-2H-thiopyran-3-yl)-7-methyl-3,7,8,9-tetrahydro-6H-imidazo[4,5-f]quinoline-6-carboxylate] | 1 to 1000
COC(=O)N1c2ccc3c(nc(CCn4cccn4)n3CCCS(C)(=O)=O)c2CC[C@@H]1C [Example 270] | 1 to 1000
COC(=O)N1c2ccc3c(nc(CCn4cccn4)n3CCS(C)(=O)=O)c2CC[C@@H]1C [Example 271] | 1 to 1000
COC(=O)N1c2ccc3c(nc(CCn4ccccc4=O)n3CCN3CCOCC3)c2CC[C@@H]1C [Example 272] | 1 to 1000
COC(=O)N1c2ccc3c(nc(CCn4ccccc4=O)n3CCS(C)(=O)=O)c2CC[C@@H]1C [Example 273] | 1 to 1000
COC(=O)N1c2ccc3c(nc(CCn4nccn4)n3C3CCS(=O)(=O)CC3)c2CC[C@@H]1C [Example 275] | 1 to 1000
COC(=O)N1c2ccc3c(nc(Cc4ccccc4)n3C3CCN(c4nnn[nH]4)CC3)c2CC[C@@H]1C [Example 278] | 1 to 1000
COC(=O)N1c2ccc3c(nc(Cc4ccccc4)n3[C@@H]3CCC[C@H](c4nnn[nH]4)C3)c2CC[C@@H]1C [Example 279, methyl (S)-3-((1R,3S)-3-(1H-tetrazol-5-yl)cyclohexyl)-2-benzyl-7-methyl-3,7,8,9-tetrahydro-6H-imidazo[4,5-f]quinoline-6-carboxylate] | 1 to 1000
COC(=O)N1c2ccc3c(nc(Cc4ccccc4)n3[C@H]3CCC[C@@H](c4nnn[nH]4)C3)c2CC[C@@H]1C [Example 280, methyl (S)-3-((1S,3R)-3-(1H-tetrazol-5-yl)cyclohexyl)-2-benzyl-7-methyl-3,7,8,9-tetrahydro-6H-imidazo[4,5-f]quinoline-6-carboxylate] | 1 to 1000

Compound | IC50 [µM]
COC(=O)N1c2ccc3c(nc(Cc4ccccc4)n3[C@@H]3CCC[C@@H](c4nnn[nH]4)C3)c2CC[C@@H]1C [Example 281, methyl (S)-3-((1R,3R)-3-(1H-tetrazol-5-yl)cyclohexyl)-2-benzyl-7-methyl-3,7,8,9-tetrahydro-6H-imidazo[4,5-f]quinoline-6-carboxylate] | 1 to 1000
COC(=O)N1c2ccc3c(nc(Cc4ccccc4)n3[C@H]3CCC[C@H](c4nnn[nH]4)C3)c2CC[C@@H]1C [Example 282, methyl (S)-3-((1S,3S)-3-(1H-tetrazol-5-yl)cyclohexyl)-2-benzyl-7-methyl-3,7,8,9-tetrahydro-6H-imidazo[4,5-f]quinoline-6-carboxylate] | 1 to 1000
COC(=O)N1c2ccc3c(nc(Cc4ccccc4)n3[C@H]3CC[C@H](c4nnn[nH]4)CC3)c2CC[C@@H]1C [Example 283] | 1 to 1000
COC(=O)N1c2ccc3c(nc(Cc4ccccc4)n3[C@H]3CC[C@@H](c4nnn[nH]4)CC3)c2CC[C@@H]1C [Example 284] | 1 to 1000
COC(=O)N1c2ccc3c(nc(Cc4ccccc4)n3CC(=O)O)c2CC[C@@H]1C [Example 285, (S)-2-(2-benzyl-6-(methoxycarbonyl)-7-methyl-6,7,8,9-tetrahydro-3H-imidazo[4,5-f]quinolin-3-yl)acetic Acid] | 1 to 1000
COC(=O)N1c2ccc3c(nc(Cc4ccccc4)n3CC(N)=O)c2CC[C@@H]1C [Example 286, methyl (S)-3-(2-amino-2-oxoethyl)-2-benzyl-7-methyl-3,7,8,9-tetrahydro-6H-imidazo[4,5-f]quinoline-6-carboxylate] | 1 to 1000
COC(=O)N1c2ccc3c(nc(Cc4ccccc4)n3CCO)c2CC[C@@H]1C [Example 287, methyl (S)-2-benzyl-3-(2-hydroxyethyl)-7-methyl-3,7,8,9-tetrahydro-6H-imidazo[4,5-f]quinoline-6-carboxylate] | 1 to 1000
COC(=O)N1c2ccc3c(nc(CCn4cccn4)n3CCNCc3cnco3)c2CC[C@@H]1C [Example 292] | 1 to 1000
COC(=O)N1c2ccc3c(nc(CCn4cccn4)n3CCNCc3cnn(C)c3)c2CC[C@@H]1C [Example 293] | 1 to 1000
COC(=O)N1c2ccc3c(nc(CCn4cccn4)n3CCNCc3cccnc3)c2CC[C@@H]1C [Example 294] | 1 to 1000
COC(=O)N1c2ccc3c(nc(CCn4cccn4)n3CCN(C)CCO)c2CC[C@@H]1C [Example 296] | 1 to 1000
COC(=O)N1c2ccc3c(nc(CCn4cccn4)n3CCN(C)CC(=O)N(C)C)c2CC[C@@H]1C [Example 297] | 1 to 1000
COC(=O)N1c2ccc3c(nc(CCn4cccn4)n3CCN3CCC(O)CC3)c2CC[C@@H]1C [Example 298] | 1 to 1000
COC(=O)N1c2ccc3c(nc(CCn4cccn4)n3CCN3CCC(CO)CC3)c2CC[C@@H]1C [Example 299] | 1 to 1000
COC(=O)N1c2ccc3c(nc(CCn4cccn4)n3CCNCC(=O)N3CCCC3)c2CC[C@@H]1C [Example 300] | 1 to 1000
COC(=O)N1c2ccc3c(nc(CCn4cccn4)n3CCN(C)C3CCOCC3)c2CC[C@@H]1C [Example 301] | 1 to 1000
COC(=O)N1c2ccc3c(nc(CCn4cccn4)n3CCN(C)[C@H]3CCOC3)c2CC[C@@H]1C [Example 302] | 1 to 1000
COC(=O)N1c2ccc3c(nc(CCn4cccn4)n3CCN3CC[C@H](C(N)=O)C3)c2CC[C@@H]1C [Example 303] | 1 to 1000
COC(=O)N1c2ccc3c(nc(CCn4cccn4)n3CCN(C)CC(C)(C)O)c2CC[C@@H]1C [Example 304] | 1 to 1000
COC(=O)N1c2ccc3c(nc(CCn4cccn4)n3CCNC3COC3)c2CC[C@@H]1C [Example 305] | 1 to 1000

Compound | IC50 [µM]
COC(=O)N1c2ccc3c(nc(CCn4cccn4)n3CCNCCC#N)c2CC[C@@H]1C [Example 306] | 1 to 1000
COC(=O)N1c2ccc3c(nc(CCn4cccn4)n3CCNCCN3CCNC3=O)c2CC[C@@H]1C [Example 307] | 1 to 1000
COC(=O)N1c2ccc3c(nc(CCn4cccn4)n3CCN3CCC(C#N)CC3)c2CC[C@@H]1C [Example 308] | 1 to 1000
COC(=O)N1c2ccc3c(nc(CCn4cccn4)n3CCN3CC[C@@H](NC(C)=O)C3)c2CC[C@@H]1C [Example 309] | 1 to 1000
COC(=O)N1c2ccc3c(nc(CCn4cccn4)n3CCN3CC[C@H](NC(C)=O)C3)c2CC[C@@H]1C [Example 310] | 1 to 1000
COC(=O)N1c2ccc3c(nc(CCn4cccn4)n3CCN3CCN(C(C)C)CC3)c2CC[C@@H]1C [Example 311] | 1 to 1000
COC(=O)N1c2ccc3c(nc(CCn4cccn4)n3CCN3CCN(C4CC4)CC3)c2CC[C@@H]1C [Example 312] | 1 to 1000
COC(=O)N1c2ccc3c(nc(CCn4cccn4)n3CCN3CCN(CCO)CC3)c2CC[C@@H]1C [Example 313] | 1 to 1000
COC(=O)N1c2ccc3c(nc(CCn4ccccc4=O)n3CCNCc3ccncn3)c2CC[C@@H]1C [Example 314] | 1 to 1000
COC(=O)N1c2ccc3c(nc(CCn4ccccc4=O)n3CCNCc3cnn(C)c3)c2CC[C@@H]1C [Example 315] | 1 to 1000
COC(=O)N1c2ccc3c(nc(CCn4ccccc4=O)n3CCNCc3ccn(C)n3)c2CC[C@@H]1C [Example 316] | 1 to 1000
COC(=O)N1c2ccc3c(nc(CCn4ccccc4=O)n3CCNCc3ncnn3C)c2CC[C@@H]1C [Example 317] | 1 to 1000
COC(=O)N1c2ccc3c(nc(CCn4ccccc4=O)n3CCNC[C@H]3CCCO3)c2CC[C@@H]1C [Example 319] | 1 to 1000
COC(=O)N1c2ccc3c(nc(CCn4ccccc4=O)n3CCNCC(=O)N3CCCC3)c2CC[C@@H]1C [Example 324] | 1 to 1000
COC(=O)N1c2ccc3c(nc(CCn4ccccc4=O)n3CCN(C)C3CCOCC3)c2CC[C@@H]1C [Example 325] | 1 to 1000
COC(=O)N1c2ccc3c(nc(CCn4ccccc4=O)n3CCN(C)[C@H]3CCOC3)c2CC[C@@H]1C [Example 326] | 1 to 1000
COC(=O)N1c2ccc3c(nc(CCn4ccccc4=O)n3CCN3CC[C@H](C(N)=O)C3)c2CC[C@@H]1C [Example 327] | 1 to 1000
COC(=O)N1c2ccc3c(nc(CCn4cccn4)n3CC(=O)N3CC[C@H](NC(C)=O)C3)c2CC[C@@H]1C [Example 335, methyl (S)-2-(2-(1H-pyrazol-1-yl)ethyl)-3-(2-((S)-3-acetamidopyrrolidin-1-yl)-2-oxoethyl)-7-methyl-3,7,8,9-tetrahydro-6H-imidazo[4,5-f]quinoline-6-carboxylate] | 1 to 1000
COC(=O)N1c2ccc3c(nc(CCn4cccn4)n3CC(=O)NCc3ccncn3)c2CC[C@@H]1C [Example 336] | 1 to 1000
COC(=O)N1c2ccc3c(nc(CCn4cccn4)n3CC(=O)NCc3ncccn3)c2CC[C@@H]1C [Example 337] | 1 to 1000
